In article PMC7906020, “Trp-Containing Antibacterial Peptides Impair Quorum Sensing and Biofilm Development in Multidrug-Resistant Pseudomonas aeruginosa and Exhibit Synergistic Effects With Antibiotics” (Frontiers in Microbiology, 2021):
Converted amounts (≈) assume the structure as drawn. “And” between values parts separate entries of the source, which are not always exact repeats. Equal entries are not always repeated. Where two headings read alike, the source gives them in different places. Peptide text beside a SMILES is read from it.

Assays:
[1] = tested on: LasB elastase of MRPA0108; experiment: LasB elastase activity, elastin-Congo red method; format: cell-based, Pseudomonas aeruginosa; conditions: peptide at 1/4 × MIC, 24 h, 37°C; ECR substrate, OD495/OD600; vs control; triplicate
Experimental: The culture supernatant was obtained after centrifugation at 12,000×g for 10 min. (1) LasB elastase activity was measured using elastin-Congo red (ECR) as the substrate, as described by [Pattnaik et al. (2018)]. Briefly, 100 μl of the culture supernatant was added to 900 μl of ECR buffer (100 mM Tris-HCl, 1 mM CaCl2, pH 7.5) containing 10 mg of ECR and then incubated with shaking at 37°C for 18 h. Then, 100 μl of 0.12 M EDTA was added to stop the reaction. The insoluble ECR was removed by centrifugation, and the supernatant absorbance was measured at 495 nm. The optical density (OD) 495 nm/OD 600 nm represents the elastase activity. (2) LasA protease activity was measured as follows ([Pattnaik et al., 2018]): first, the culture supernatant was filtered to remove the bacterial cells, and then 150 μl of sterile-filtered supernatant was added to 2% azocasein (prepared in 50 mM Tris-HCl) and incubated for 4 h at 37°C. Trichloroacetic acid (TCA, 10%) was added to precipitate the undigested substrate. After centrifugation at 10,000 rpm for 10 min, 1 M NaOH was added to the supernatant, and the relative protease activity was measured at OD 440 nm. (3) The pyocyanin assay was based on the absorbance of excreted pyocyanin at 520 nm in an acidic solution ([Kong et al., 2005]). Three milliliters of culture supernatant were mixed with 2 ml of chloroform for 20 min, and then the pyocyanin from the chloroform phase was reextracted using 0.2 M HCl for 15 min to obtain a pink-colored pyocyanin solution. The OD 520 nm was measured to evaluate the change in pyocyanin content. (4) Rhamnolipid detection was carried out as previously described ([Wittgens et al., 2011]). Briefly, 500 μl of culture supernatant was mixed with 500 μl of ethyl acetate and vortexed vigorously for 15 s to extract rhamnolipid. After centrifugation at 10,000×g for 5 min at 4°C, the organic phase containing rhamnolipids was obtained and evaporated at room temperature overnight. […] The absorbance was measured at 420 nm. (5) The level of C4-HSL was quantified by GC-MS as previously described ([Guo et al., 2012]).

[2] = cited from earlier work
Text: Supplement Table_1.docx, table 1: Table S1 Biological characteristics and antibacterial activities of the Trp-containing antimicrobial peptides (32) | column: Hemolysis (μM)

MRPA0108 strain [3] = conditions: previous study, ref Han et al., 2020; cited from earlier work
Text: Supplement Table_1.docx, table 1: Table S1 Biological characteristics and antibacterial activities of the Trp-containing antimicrobial peptides (32) | column: MIC(μM)

[4] = tested on: alginate production in MRPA0108; experiment: Alginate determination, H2SO4-carbazole method; format: cell-based, Pseudomonas aeruginosa; conditions: OD 530 nm
Experimental: (§1) Exopolysaccharides were determined using the phenol-H2SO4 method. Briefly, after incubation, the cultures were centrifuged at 10,000 rpm for 15 min, and the pellets were resuspended in high-salt buffer (10 mM KPO4, 5 mM NaCl, 2.5 mM MgSO4, pH 7.0), followed by recentrifugation at 10,000 rpm for 30 min. The resulting supernatant was mixed with three volumes of chilled ethanol (100%) and incubated overnight at 4°C. The precipitated exopolysaccharide was added to a mixture containing cold phenol and H2SO4, and the absorbance of the solution was measured at 490 nm. Alginate content was determined using the H2SO4-carbazole method. Briefly, after incubation, the precooled cultures were mixed with an H2SO4 solution (4:1) and vortexed in ice water, and then 0.2% carbazole dissolved in ethanol was added. The mixture was revortexed and incubated at 55°C for 30 min, and the OD 530 nm was measured.

[5] = tested on: exopolysaccharide production in MRPA0108; experiment: Exopolysaccharide determination, phenol-H2SO4 method; format: cell-based, Pseudomonas aeruginosa; conditions: phenol-H2SO4, 490 nm
Experimental: as §1

[6] = tested on: rhamnolipid production in MRPA0108; experiment: Rhamnolipid production, orcinol method; format: cell-based, Pseudomonas aeruginosa; conditions: peptide at 1/4 × MIC, 24 h, absorbance 420 nm, vs control, triplicate
Experimental: The culture supernatant was obtained after centrifugation at 12,000×g for 10 min. (1) LasB elastase activity was measured using elastin-Congo red (ECR) as the substrate, as described by [Pattnaik et al. (2018)]. Briefly, 100 μl of the culture supernatant was added to 900 μl of ECR buffer (100 mM Tris-HCl, 1 mM CaCl2, pH 7.5) containing 10 mg of ECR and then incubated with shaking at 37°C for 18 h. Then, 100 μl of 0.12 M EDTA was added to stop the reaction. The insoluble ECR was removed by centrifugation, and the supernatant absorbance was measured at 495 nm. The optical density (OD) 495 nm/OD 600 nm represents the elastase activity. (2) LasA protease activity was measured as follows ([Pattnaik et al., 2018]): first, the culture supernatant was filtered to remove the bacterial cells, and then 150 μl of sterile-filtered supernatant was added to 2% azocasein (prepared in 50 mM Tris-HCl) and incubated for 4 h at 37°C. Trichloroacetic acid (TCA, 10%) was added to precipitate the undigested substrate. After centrifugation at 10,000 rpm for 10 min, 1 M NaOH was added to the supernatant, and the relative protease activity was measured at OD 440 nm. (3) The pyocyanin assay was based on the absorbance of excreted pyocyanin at 520 nm in an acidic solution ([Kong et al., 2005]). Three milliliters of culture supernatant were mixed with 2 ml of chloroform for 20 min, and then the pyocyanin from the chloroform phase was reextracted using 0.2 M HCl for 15 min to obtain a pink-colored pyocyanin solution. The OD 520 nm was measured to evaluate the change in pyocyanin content. (4) Rhamnolipid detection was carried out as previously described ([Wittgens et al., 2011]). Briefly, 500 μl of culture supernatant was mixed with 500 μl of ethyl acetate and vortexed vigorously for 15 s to extract rhamnolipid. After centrifugation at 10,000×g for 5 min at 4°C, the organic phase containing rhamnolipids was obtained and evaporated at room temperature overnight. The rhamnolipid extract dissolved in ultrapure water was mixed with orcinol reagent (0.19% orcinol in 53% H2SO4) and incubated at 80°C for 30 min. The absorbance was measured at 420 nm. (5) The level of C4-HSL was quantified by GC-MS as previously described ([Guo et al., 2012]).

MRPA0108 biofilms = experiment: Confocal laser scanning microscopy of biofilms (LIVE/DEAD staining); format: cell-based, Pseudomonas aeruginosa; conditions: 24 h; for percentage of dead/live cells in biofilm: SYTO9/PI, control 8.7%
Experimental: Biofilms of MRPA0108 were visualized by confocal microscopy. Mid-log growth-phase bacteria were diluted to 1 × 10^7 CFU/ml. […] LB liquid medium and erythromycin were used as negative and positive controls, respectively. After incubation, the supernatant was removed, and the slides were washed and stained in a dark environment for 30 min using a LIVE/DEAD BacLight^TM Bacterial Viability Kit (Invitrogen, Life Technologies, Shanghai, China). The slides were washed three times and imaged with a confocal laser scanning microscope (LSM 710, Carl Zeiss, Germany) with excitation/emission wavelengths of 480/500 and 490/635 nm for SYTO9 and propidium iodide (PI), respectively. SYTO9 was used to indicate live bacteria, and PI was used to mark dead bacteria.

MRPA0108 strain [7] = experiment: MIC of antibiotics alone and in combination with 1/4 × MIC peptide; format: cell-based, Pseudomonas aeruginosa; conditions: for fold reduction of MIC of the antibiotic: antibiotic in combination with Trp-containing peptides at 1/4 × MIC, range over the peptides
Experimental: FIGURE 6 Antibacterial activity of antibiotics in combination with the Trp-containing peptides. Bacterial cultures were treated with a series of concentration of antibiotics ceftazidime (A), piperacillin (B), and levofloxacin (C) in the absence (control) and presence of a 1/4 × MIC peptide concentration at 37C overnight. The OD600 was recorded using a microtiter plate reader. The MIC was defined as the lowest antibiotics concentration that inhibited 95% of the bacterial growth. Phenylalanyl arginyl β-naphthylamide (PAβN), a broad-spectrum inhibitor for efflux pump, was used as a positive control. Each data point represents an average of six independent experiments. *P < 0.05 and **P < 0.01 indicate statistically significant differences between antibiotics alone and antibiotics in combination with peptide.

[8] = tested on: β-lactamase activity in MRPA0108 cells; experiment: β-Lactamase activity assay (nitrocefin kit) in treated cells; format: cell-based, Pseudomonas aeruginosa; conditions: MRPA0108 cells treated with antibiotic alone, compared to control
Experimental: β-lactamase activity was measured by using a β-lactamase assay kit (YIASEN Biotech Co., Ltd., Shanghai, China) according to the manufacturer’s instructions. Briefly, mid-log growth-phase bacteria were diluted to 1 × 10^8 CFU/ml and treated with I1W or L12W at concentrations ranging from 3.13 to 50 μM for 12 h at 37°C. After induction, the cultures were harvested by centrifugation at 5,000 rpm at 4°C, washed three times with PBS buffer (pH 7.2), and then resuspended in the same buffer. The cells were sonicated on ice for 15 min, and the cell lysates containing β-lactamase were collected by centrifugation at 12,000 rpm for 30 min at 4°C. Fifty microliters of the prepared β-lactamase-containing lysates was mixed with 50 μl of assay buffer containing nitrocefin and reacted at room temperature in a dark environment for 20 min. Nitrocefin hydrolysis was measured spectrophotometrically at 490 nm. Concurrently, the total protein content was determined with a Bradford assay using the same supernatant. One milliunit of β-lactamase is defined as 1 nanomole of nitrocefin hydrolyzed per minute per microgram of protein.

MRPA0108 = experiment: Checkerboard assay (FICI) of peptides with antibiotics; format: cell-based, Pseudomonas aeruginosa; conditions: MRPA0108, 24 h 37°C, median of at least three experiments, synergy ≤ 0.5, additive 0.5-1, indifference 1-2
Experimental: The synergistic effect of peptides and antibiotics was evaluated using the checkerboard method, in which the fractional inhibitory concentration index (FICI) was used to analyze the type of interaction between compounds ([Berditsch et al., 2015]). A 100 μl inoculum of 10^5 CFU/ml planktonic bacteria was added to the respective wells of 96-well microtiter plates, and then serial dilutions of peptide and antibiotic at 100 μl volumes were added to each well and incubated at 37°C for 24 h. The OD 600 nm value was measured with a microplate plate reader (Varioskan Flash Microplate Reader, Thermo Fisher Scientific Co., Beijing) as an indicator of growth inhibition. The resulting checkerboard contained each combination of peptide and antibiotic in 9 doubly increasing concentrations, with wells containing the highest concentration of each antibiotic at opposite corners. The concentrations tested for every combination of peptide-antibiotic were their respective MICs. MH medium and the peptide/antibiotic combination served as negative and positive controls, respectively. The FICI is calculated as FICa plus FICb, where FICa is the MIC of the peptide in the presence of antibiotics/the MIC of the peptide alone, and FICb is the MIC of the antibiotic in the presence of peptide/the MIC of the antibiotic alone. Drug interactions were defined as follows: synergy, FICI ≤ 0.5; additive effect, 0.5 < FICI ≤ 1; and indifference, 1 < FICI ≤ 2 ([Hollander et al., 1998]; [Yoon et al., 2004]). The results were recorded in at least three independent experiments, and the median FICI values were used in the analysis.

[9] = lowest concentration inhibiting 95% of growth, overnight 37°C, six experiments

Molecule | Hemolysis [2] | MIC (MRPA0108 strain [3]) | inhibition of rhamnolipid production [6] | fold reduction of MIC of the antibiotic (MRPA0108 strain [7]) | FICI in combination with ceftazidime (MRPA0108) | FICI in combination with piperacillin (MRPA0108) | also measured
CC[C@H](C)[C@H](N)C(=O)N[C@@H](CCCCN)C(=O)N[C@@H](CCCCN)C(=O)N[C@@H](Cc1c[nH]c2ccccc12)C(=O)N[C@@H](CC(C)C)C(=O)N[C@@H](CO)C(=O)N[C@@H](CCCCN)C(=O)N[C@H](C(=O)N[C@@H](CCCCN)C(=O)N[C@@H](CCCCN)C(=O)N[C@@H](CC(C)C)C(=O)N[C@@H](CC(C)C)C(=O)N[C@@H](CCCCN)C(N)=O)[C@@H](C)CC [I4W] (H-IKKWLSKIKKLLK-NH2; N-terminus and C-terminus assumed) | > 500 µM | 6.25 µM (≈ 10.2 µg/mL) | 43.9% | – | – | – | decrease of LasB elastase activity [1]: 22.3%; inhibition of alginate production ([4]; peptide at 1/4 × MIC): 47%; inhibition of alginate production ([4]; peptide at 1 × MIC): 68%; reduction of exopolysaccharide production ([5]; peptide at 1/4 × MIC, overnight 37°C): 25.0%; reduction of exopolysaccharide production ([5]; peptide at 1 × MIC): 65.2%; reduction of exopolysaccharide production ([5]; peptide concentration increased onefold from 1/4 × MIC): 42.4%; average biofilm thickness (MRPA0108 biofilms; after treatment with low concentrations of peptide (1 × MIC or 2 × MIC), 37°C, control biofilm 6 μm): 1.5–2.5 μm; percentage of dead/live cells in biofilm (MRPA0108 biofilms; peptide at 1 × MIC): 31.2%; percentage of dead/live cells in biofilm (MRPA0108 biofilms; peptide at 2 × MIC): 41.7%
CC(C)(O/N=C(\C(=O)N[C@@H]1C(=O)N2C(C(=O)[O-])=C(C[n+]3ccccc3)CS[C@H]12)c1csc(N)n1)C(=O)O [ceftazidime] | – | – | – | 8–32 fold | – | – | MIC of antibiotic alone (MRPA0108 strain [7]; [9]): 30 µM; MIC of antibiotic in combination with 1/4 × MIC L12W (MRPA0108 strain [7]; [9]): 0.94 µM; increase of β-lactamase activity [8]: fourfold
C[C@H]1COc2c(N3CCN(C)CC3)c(F)cc3c(=O)c(C(=O)O)cn1c23 [levofloxacin] | – | – | – | 0–4 fold | – | – | –
CCN1CCN(C(=O)N[C@@H](C(=O)N[C@@H]2C(=O)N3[C@@H]2SC(C)(C)[C@@H]3C(=O)O)c2ccccc2)C(=O)C1=O [piperacillin, reference compound] | – | – | – | 2–11 fold | – | – | increase of β-lactamase activity [8]: 1.8 fold
IKKILSKIKKWLK-NH2 [L11W] | – | 25 µM | 24.3% | – | 0.25 | 0.28–0.49 and 0.34 | Hemolysis ([2]; as previously reported, ref Bi et al., 2013): > 500 µM
IKKWWSKIKKLLK-NH2 [I4WL5W] | > 500 µM | 12.5 µM | 37.5% | – | 0.43 | 0.68 | FICI in combination with levofloxacin (MRPA0108): 1.12
WKKIWSKIKKLLK-NH2 [I1WL5W] | > 500 µM | 12.5 µM | 38.8% | – | 0.37 | 0.59 | FICI in combination with levofloxacin (MRPA0108): 0.75
